Drawing on ChEMBL document CHEMBL1123862, “Binding orientation of amphetamine and norfenfluramine analogues in the benzonorbornene and benzobicyclo[3.2.1]octane ring systems at the active site of phenylethanolamine N-methyltransferase (PNMT)” (J Med Chem, 1987), this text covers Ki, Km and Vmax for 15 molecules.

In general, Ki refers to the dissociation constant of the complex between target and ligand, obtained from inhibition or displacement. Read a low Ki as a stronger hold on the target. As usually defined, the Km is the substrate concentration at which the rate is half of its maximum. For orientation: Vmax means the top rate of the reaction or transport when substrate is in excess.

The target in series [1] is T1, Phenylethanolamine N-methyltransferase (Bos taurus, UniProt P10938).
T1 sequence (P10938 whole entry): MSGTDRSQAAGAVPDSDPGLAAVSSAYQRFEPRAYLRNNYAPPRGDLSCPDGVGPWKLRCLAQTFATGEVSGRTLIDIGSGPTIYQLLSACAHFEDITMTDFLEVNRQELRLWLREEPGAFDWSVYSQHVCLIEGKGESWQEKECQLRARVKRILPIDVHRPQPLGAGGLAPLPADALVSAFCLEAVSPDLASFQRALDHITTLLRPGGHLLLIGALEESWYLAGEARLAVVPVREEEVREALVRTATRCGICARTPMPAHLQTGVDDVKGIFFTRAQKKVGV
The experiment in a line: (§1) Inhibition of Phenylethylamine N-Methyltransferase (PNMT) using radiochemical assay.

Compound in series [2]: N[C@@H]1C2CCC1c1ccc(C(F)(F)F)cc1C2
The series is described as §1.

Compound in series [3]: NC1C2CC[C@H]1c1ccccc12
The description is as §1.

Compound in series [4]: N[C@H]1C2CCC1c1cc(C(F)(F)F)ccc12
The description is as §1.

Compound in series [5]: N[C@@H]1CC2C[C@@H]1c1ccccc12
Described as §1.

Compound in series [6]: N[C@@H]1CC2CC1c1cccc(C(F)(F)F)c12
Described as §1.

Compound in series [7]: N[C@@H]1C2CCC1c1cccc(C(F)(F)F)c1C2
The description is as §1.

Compound in series [8]: N[C@@H]1CC2CC1c1ccc(C(F)(F)F)cc12
The description is as §1.

On to `N[C@@H]1C2CCC1c1cc(C(F)(F)F)ccc1C2` (some centres not stated), for which, in series [1], the Ki came to 31.8 µM.

In turn, `N[C@@H]1C2CCC1c1c(cccc1C(F)(F)F)C2` (some centres not stated) returned a Ki in series [1] of 51.1 µM.

`N[C@@H]1CC2CC1c1c2cccc1C(F)(F)F` (some centres not stated) yielded a Ki in series [1] of 350 µM. Compared with the last molecule, the Ki is about 6.8-fold higher.

In series [1], `N[C@H]1C2CCC1c1ccccc1C2` (some centres not stated) registered a Ki of 8900 µM.

`N[C@@H]1CC2CC1c1cc(C(F)(F)F)ccc12` (some centres not stated) had a Ki in series [1] of 204 µM.

Take `N[C@@H]1CC2CCC1c1ccccc12` (some centres not stated): in series [1], the affinity corresponds to a Ki of 1300 µM.

`NC1C2CC[C@H]1c1ccccc12` (some centres not stated) had a Ki in series [1] of 258 µM.

`N[C@H]1C2CCC1c1cc(C(F)(F)F)ccc1C2` (some centres not stated) came in with a Ki in series [1] of 801 µM.

Regarding `N[C@H]1C2CCC1c1c2cccc1C(F)(F)F` (some centres not stated), affinity in series [1] was put at a Ki of 12.1 µM.

In series [1], `N[C@@H]1C2CCC1c1ccccc1C2` (some centres not stated) registered a Ki of 106 µM.

`N[C@H]1C2CCC1c1c(cccc1C(F)(F)F)C2` (some centres not stated) displayed a Ki in series [1] of 191 µM.

In series [1], `NC1CCc2ccccc2C1` (configuration not stated) displayed a Ki of 15 µM.

For `N[C@H]1C2CCC1c1cccc(C(F)(F)F)c1C2` (some centres not stated), in series [1], the Ki amounted to 1430 µM.

In the case of `N[C@H]1C2CCC1c1ccc(C(F)(F)F)cc1C2` (some centres not stated), the affinity in series [1] corresponds to a Ki of 1800 µM. This Ki and that of the molecule before are within 1.5-fold of each other.

B1: Phenylethanolamine N-methyltransferase (Bos taurus), P10938 (protein)
chain: T1 sequence (P10938 whole entry)
Regarding B1, the Km stood at 45.8 µM in series [2]; 151 µM in series [3]; 14.6 µM in series [4]; 33 µM in series [6]; 34.4 µM in series [7]; 52 µM in series [8]. Further, the Vmax worked out at 0.46 nmol/min/mg in series [2]; 0.17 nmol/min/mg in series [3]; 0.57 nmol/min/mg in series [4]; 0.04 nmol/min/mg in series [5]; 0.49 nmol/min/mg in series [6]; 0.52 nmol/min/mg in series [7]. Further, the Vmax in series [8] was 1.38 nmol/min/mg.
